# Data published in patent publication US7429659B2, “Furan compounds as histamine H3 modulators” (Janssen Pharmaceutica N.V., priority 2004, dated 2008).
# Structures can show the parent of a compound that is named as a salt.
# Target: T1, human histamine H3 receptor (Homo sapiens, UniProt Q9Y5N1)
# T1 construct: One μg supercoiled H3 receptor cDNA was added to the cells; expressed in transfected cells; membranes prepared from cell pellets
# Assay: [3H]-N-Methylhistamine binding to membranes of histamine H3 receptor-expressing SK-N-MC cells
# Conditions: 0.8 nM [3H]-N-methylhistamine, 60 min at 25° C., SK-N-MC cell membranes; Ki=(IC50)/(1+([L]/(KD))
# Description: Cells were grown to about 70% to 80% confluence and removed from the plate with trypsin and pelleted in a clinical centrifuge. […] One μg supercoiled H3 receptor cDNA was added to the cells and mixed gently. […] Colonies that survived selection were grown and tested. SK-N-MC cells were used because they give efficient coupling for inhibition of adenylate cyclase. The clones that gave the most robust inhibition of adenylate cyclase in response to histamine were used for further study.
# Supernatants from an 800 g spin were collected and were recentrifuged at 30,000 g for 30 min. Pellets were re-homogenized in 50 mM Tris/5 mM EDTA (pH 7.4). Membranes were incubated with 0.8 nM [^3H]-N-methylhistamine plus/minus test compounds for 60 min at 25° C. and were harvested by rapid filtration over GF/C glass fiber filters (pretreated with 0.3% polyethylenimine) followed by four washes with buffer. Filters were added to 5 mL of scintillation cocktail, and the signal was then counted on a liquid scintillation counter.
# T1 sequence (Q9Y5N1 whole entry): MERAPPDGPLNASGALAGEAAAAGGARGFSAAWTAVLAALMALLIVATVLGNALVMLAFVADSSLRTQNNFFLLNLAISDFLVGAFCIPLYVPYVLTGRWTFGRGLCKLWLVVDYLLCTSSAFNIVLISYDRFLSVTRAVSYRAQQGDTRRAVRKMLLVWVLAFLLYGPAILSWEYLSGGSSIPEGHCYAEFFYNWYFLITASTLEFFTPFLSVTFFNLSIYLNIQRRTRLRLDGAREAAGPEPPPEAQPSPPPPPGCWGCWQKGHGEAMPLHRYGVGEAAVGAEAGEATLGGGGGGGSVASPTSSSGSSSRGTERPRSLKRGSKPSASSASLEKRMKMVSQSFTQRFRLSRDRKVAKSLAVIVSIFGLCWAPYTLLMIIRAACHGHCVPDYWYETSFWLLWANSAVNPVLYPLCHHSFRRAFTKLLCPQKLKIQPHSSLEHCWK
structure (smiles),measurement,value
"CC(C)N1CCN(C(=O)c2ccc(CN3CCC(F)CC3)o2)CC1 [Example 19, [5-(4-Fluoro-piperidin-1-ylmethyl)-furan-2-yl]-(4-isopropyl-piperazin-1-yl)-methanone, fumarate salt]",Ki,64 nM
